What was measured:
GM1-enriched lipid rafts = format: cell-based, mouse; conditions: JAWS II cells, 18 hr with 100 nM glycolipid
mCD1d.WT = biological target: T1, mCD1d.WT (Mus musculus, UniProt P11609); test: iNKT hybridoma DN3A4.1-2 stimulation with A20 cells expressing wild-type mCD1d, IL-2 release; format: cell-based; conditions: A20 B lymphoma cells expressing mCD1d.WT; compared to all Th2 cell-type cytokine-biasing analogs
T1 construct: expressed in transfected cells; host or cells: A20 B lymphoma cells (provided by M. Kronenberg)
T1 sequence (P11609 22-336): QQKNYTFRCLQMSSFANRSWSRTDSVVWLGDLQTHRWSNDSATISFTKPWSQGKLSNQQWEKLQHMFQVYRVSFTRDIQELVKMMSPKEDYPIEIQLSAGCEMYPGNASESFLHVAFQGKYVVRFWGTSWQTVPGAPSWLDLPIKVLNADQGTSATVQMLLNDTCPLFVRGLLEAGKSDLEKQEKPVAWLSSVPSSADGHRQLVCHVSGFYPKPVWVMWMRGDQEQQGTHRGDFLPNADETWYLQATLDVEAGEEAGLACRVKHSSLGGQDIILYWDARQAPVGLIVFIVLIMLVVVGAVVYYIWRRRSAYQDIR
T1 sequence (P01887 21-119 partner): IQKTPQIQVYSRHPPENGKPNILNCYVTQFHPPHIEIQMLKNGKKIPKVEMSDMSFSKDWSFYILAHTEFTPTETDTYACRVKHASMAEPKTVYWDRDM
Description: Figure 4 Cell Surface versus Intracellular Loading of mCD1d with Different αGalCer Analogs (A) On the left, surface accumulation of CD1d-αGalCer complexes was studied with JAWS II cells harvested after incubation with the indicated glycolipids for 1, 4, or 16 hr and then stained without permeabilization with mAb L363 (red). Cells were then fixed, stained with DAPI for nuclei visualization (blue), and analyzed by confocal microscopy. On the right, the intracellular formation and trafficking of CD1d-αGalCer complexes were analyzed by treatment of JAWS II cells with αGalCer analogs for 1, 4, and 16 hr followed by fixation and permeabilization. The cells were stained for CD1d-αGalCer complexes (L363, red), late endosomes and lysosomes (anti-LAMP-1, green), and nuclei (DAPI, blue). Results are representative of three separate experiments. The scale bar represents 10 μm. […] Supernatant concentrations of IL-2 release were determined after 12 hr. […]
For in vitro stimulation, murine iNKT hybridomas at 5 × 10^4 cells/well in 96-well plates were stimulated with an equal number of either JAWS II cells or transfected A20 cells in complete medium with glycolipids for 12 hr at 37°C, and levels of murine IL-2 secretion were determined. […] Subsequently the levels of IL-4, IL-13, and IFN-γ in culture supernatants were quantified by capture ELISA. […]

Row | SMILES | colocalization of L363 staining with CTxB staining (GM1-enriched lipid rafts) | relative potency at activating iNKT cells (mCD1d.WT)
1 | CCCCCCCCCCCCCCC(O)C(O)C(COC1OC(CO)C(O)C(O)C1O)NC(=O)CCCCCCCCC (stereo not shown) [αGalCer-C10:0] | extremely limited colocalization with CTxB staining | –
2 | CCCCCCCCCCCCCCCCCCCCCCCC(=O)NC(COC1OC(CO)C(O)C(O)C1O)C(O)C(O)CCCCCCCCCCCCCC (stereo not shown) [αGalCer-C24:0] | – | significantly more potent
3 | CCCCCCCCCCCCCCCCCCCCCCCCCC(=O)NC(COC1OC(CO)C(O)C(O)C1O)C(O)C(O)CCCCCCCCCCCCCC (stereo not shown) [αGalCer-C26:0, reference compound] | strong colocalization with CTxB staining | significantly more potent

Source: paper PMC2719696, “Kinetics and Cellular Site of Glycolipid Loading Control the Outcome of Natural Killer T Cell Activation” (Immunity, 2009)
